Values quoted from earlier work as cited in US20080139510A1, “Treatment of migraine headaches with sublingual amino acids” (priority 2006, published 2008).

Tested on: migraine attack
Conditions: oral administration, tablet or capsule

## N[C@@H](Cc1c[nH]c2ccc(O)cc12)C(=O)O [5-HTP, 5-hydroxytryptophan]
  aborting or significantly mitigating pain after onset of migraine attack: ineffective
